Data taken from patent US20260035340A1, “INHIBITORS OF AKR1C3 AND METHODS OF USE” (BOARD OF REGENTS OF THE UNIVERSITY OF NEBRASKA, priority 2022, published 2026).
Where two headings read alike, the source gives them in different places.

Key:
Format in all cases: biochemical
[1] = biological target: AKR1C4 (Homo sapiens (Human), UniProt P17516); assay: AKR enzyme inhibition assay, AKR1C4; conditions: Table 2; recombinant enzyme; read-out: IC50 ± SD AKR1C4
Description: (§1) Assay of enzyme activity: The dehydrogenase activities of AKR1C1, AKR1C2, and AKR1C3 were determined by measuring the formation of NADH formation at 340 nm using Beckman DU640 spectrophotometer. […] After continuously monitoring for 5 min, the increase in UV absorption using different concentrations of enzyme were recorded to calculate the initial velocity and determine enzyme specific activity. IC50 value determination: The inhibitory potency for each compound was represented by IC50 value and measured as described before. […] The concentration of S-tetralol used in the assays for each AKR1C isoform was equal to the Km value for the respective enzyme so that IC50 values could be directly compared assuming a competitive pattern of inhibition. […] In this equation, “range” is the fitted uninhibited value minus the “background”, and “S” is a slope factor. “I” is the concentration of inhibitor. The equation assumes that y falls with increasing “I”.

[2] = biological target: AKR1C3 (Homo sapiens (Human), UniProt P42330); assay: AKR enzyme inhibition assay, NADP+ dependent oxidation of S-tetralol, AKR1C3; conditions: for Selectivity 1C2:1C3: ratio of AKR1C2 to AKR1C3 IC50; for selectivity over AKR1C2: AKR1C3 over AKR1C2
Description: (§2) Structure-Activity Relationship: The ability of compounds to inhibit AKR1C3 in the first instance were determined by measuring the NADP+ dependent oxidation of S-tetralol catalyzed by recombinant enzyme as described herein. […] Assay of enzyme activity: The dehydrogenase activities of AKR1C1, AKR1C2, and AKR1C3 were determined by measuring the formation of NADH formation at 340 nm using Beckman DU640 spectrophotometer. […] After continuously monitoring for 5 min, the increase in UV absorption using different concentrations of enzyme were recorded to calculate the initial velocity and determine enzyme specific activity. IC50 value determination: The inhibitory potency for each compound was represented by IC50 value and measured as described before. […] The concentration of S-tetralol used in the assays for each AKR1C isoform was equal to the Km value for the respective enzyme so that IC50 values could be directly compared assuming a competitive pattern of inhibition. […] In this equation, “range” is the fitted uninhibited value minus the “background”, and “S” is a slope factor. “I” is the concentration of inhibitor. The equation assumes that y falls with increasing “I”.

[3] = biological target: AKR1C2 (Homo sapiens (Human), UniProt P52895); assay: AKR enzyme inhibition assay, NADP+ dependent oxidation of S-tetralol, AKR1C2 counter-screen
Description: as §2

[4] = biological target: AKR1C1 (Homo sapiens (Human), UniProt Q04828); assay: AKR enzyme inhibition assay, NADP+ dependent oxidation of S-tetralol, AKR1C1; conditions: Table 2; recombinant enzyme, S-tetralol at Km; read-out: IC50 ± SD AKR1C1
Description: as §1

[5] = Table 2, recombinant enzyme, S-tetralol at Km, read-out: IC50 ± SD AKR1C3
[6] = Table 2, recombinant enzyme, S-tetralol at Km, read-out: IC50 ± SD AKR1C2
[7] = Table 4, compounds of formula (A3), read-out: IC50 AKR1C3
[8] = Table 3, compounds of formula (A4), read-out: IC50 AKR1C3

Sequence of AKR1C3 (P42330 whole entry): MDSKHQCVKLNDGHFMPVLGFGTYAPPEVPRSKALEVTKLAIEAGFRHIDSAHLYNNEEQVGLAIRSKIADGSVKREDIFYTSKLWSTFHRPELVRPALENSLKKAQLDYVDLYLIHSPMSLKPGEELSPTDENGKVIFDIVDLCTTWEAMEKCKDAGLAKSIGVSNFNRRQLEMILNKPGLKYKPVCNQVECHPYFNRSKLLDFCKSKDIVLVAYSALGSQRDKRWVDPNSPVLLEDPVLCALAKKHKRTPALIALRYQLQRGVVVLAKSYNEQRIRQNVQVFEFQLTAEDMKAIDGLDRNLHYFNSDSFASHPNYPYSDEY
Sequence of AKR1C4 (P17516 whole entry): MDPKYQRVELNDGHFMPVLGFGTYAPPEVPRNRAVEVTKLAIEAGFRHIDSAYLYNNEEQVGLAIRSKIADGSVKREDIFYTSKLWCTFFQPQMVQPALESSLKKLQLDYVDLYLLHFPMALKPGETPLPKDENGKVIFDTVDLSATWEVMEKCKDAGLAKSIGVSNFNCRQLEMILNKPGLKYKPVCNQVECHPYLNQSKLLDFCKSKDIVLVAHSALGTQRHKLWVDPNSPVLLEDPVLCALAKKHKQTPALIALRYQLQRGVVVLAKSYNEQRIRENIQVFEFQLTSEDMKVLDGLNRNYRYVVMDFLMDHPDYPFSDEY
Sequence of AKR1C2 (P52895 whole entry): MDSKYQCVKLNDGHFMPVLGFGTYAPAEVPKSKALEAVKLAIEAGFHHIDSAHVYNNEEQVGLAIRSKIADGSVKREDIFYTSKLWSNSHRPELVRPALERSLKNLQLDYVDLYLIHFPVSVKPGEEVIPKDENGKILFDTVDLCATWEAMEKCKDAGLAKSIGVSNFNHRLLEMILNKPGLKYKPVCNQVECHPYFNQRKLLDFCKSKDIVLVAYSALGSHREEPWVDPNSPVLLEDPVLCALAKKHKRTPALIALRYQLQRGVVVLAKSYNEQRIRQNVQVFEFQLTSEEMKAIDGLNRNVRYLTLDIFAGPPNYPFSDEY
Sequence of AKR1C1 (Q04828 whole entry): as the sequence (P52895 whole entry) above, with V38T, H47R, V54L, S87C, M151V, H170R, L172Q counted along it

| IC50 [1] [µM] | IC50 [2, 5] [µM] | IC50 [3, 6] [µM] | IC50 ([2]; read-out: IC50 AKR1C3) [µM] | selectivity over AKR1C2 [2] [fold] | Structure (SMILES) | other results |
| --- | --- | --- | --- | --- | --- | --- |
| 6 ± 0.5 | 0.06 ± 0.007 | 20 ± 9 | – | – | Cc1ccc(CNC(=O)c2cc(/C=C/C(=O)O)cc(-c3ccc(Cl)cc3)c2)cc1 [Compound A1-c, (E)-3-(4′-Chloro-5-((4-methylbenzyl)carbamoyl)-[1,1′-biphenyl]-3-yl)acrylic acid] | Selectivity 1C2:1C3 ([2]; Table 2): 333; IC50 [4]: > 100 µM |
| 10 ± 1.72 | 0.1 ± 0.008 | 16 ± 3.9 | – | – | Cc1ccc(CNC(=O)c2cc(/C=C/C(=O)O)cc(-c3ccc(C)cc3)c2)cc1 [Compound A1-i, (E)-3-(4′-Methyl-5-((4-methylbenzyl)carbamoyl)-[1,1′-biphenyl]-3-yl)acrylic acid] | Selectivity 1C2:1C3 ([2]; Table 2): 160; IC50 [4]: 66 ± 17 µM |
| 25 ± 3.1 | 0.08 ± 0.004 | 16 ± 2.5 | – | 200 | C/C=C\Cc1cc(/C=C/C(=O)O)cc(C(=O)NCc2ccc(C)cc2)c1 [Compound A1-aa, (E)-3-(3-((Z)-but-2-en-1-yl)-5-((4-methylbenzyl)carbamoyl)phenyl)acrylic acid] | IC50 [4]: 81 ± 5.1 µM |
| 16.4 ± 2 | 0.05 ± 0.004 | 48 ± 16 | – | 960 | Cc1ccc(CNC(=O)c2cc(/C=C/C(=O)O)cc(-c3cccc(F)c3)c2)cc1 [Compound A1-f, (E)-3-(3′-Fluoro-5-((4-methylbenzyl)carbamoyl)-[1,1′-biphenyl]-3-yl)acrylic acid] | IC50 [4]: > 100 µM |
| 8 ± 1.2 | – | 36 ± 4 | 0.06 | – | Cc1ccc(CNC(=O)c2cc(/C=C/C(=O)O)cc(-c3ccc(F)cc3)c2)cc1 [Compound A1-d, (E)-3-(4′-Fluoro-5-((4-methylbenzyl)carbamoyl)-[1,1′-biphenyl]-3-yl)acrylic acid] | Selectivity 1C2:1C3 ([2]; Table 2): 600; IC50 [4]: > 100 µM |
| 70 ± 11 | – | 39 ± 9 | 0.11 | 354 | C/C=C/Cc1cc(/C=C/C(=O)O)cc(C(=O)NCc2ccc(C)cc2)c1 [Compound A1-z, (E)-3-(3-((E)-But-2-en-1-yl)-5-((4-methylbenzyl)carbamoyl)phenyl)acrylic acid] | IC50 [4]: > 100 µM |
| – | 0.19 ± 0.01 | – | – | – | CCc1ccc(-c2cc(/C=C/C(=O)O)cc(C(=O)NCc3ccc(C)cc3)c2)cc1 [Compound A1-j, (E)-3-(4′-Ethyl-5-((4-methylbenzyl)carbamoyl)-[1,1′-biphenyl]-3-yl)acrylic acid] | – |
| – | 0.5 ± 0.04 | 37 ± 9.6 | – | 74 | Cc1ccc(CNC(=O)c2cc(C#CC3CC3)cc(/C=C/C(=O)O)c2)cc1 [Compound A1-bb, (E)-3-(3-(Cyclopropylethynyl)-5-((4-methylbenzyl)carbamoyl)phenyl)acrylic acid] | – |
| – | – | – | 0.2 | – | COC(=O)/C=C/c1cc(Br)cc(C(=O)NCc2ccc(C)cc2)c1 [Compound 3] | – |
| – | – | – | 0.4 | – | Cc1ccc(CNC(=O)c2cc(Br)cc(/C=C/C(=O)N(C)C)c2)cc1 [Compound 14, (E)-3-Bromo-5-(3-(dimethylamino)-3-oxoprop-1-en-1-yl)-N-(4-methylbenzyl)benzamide] | increased activity over terminal primary amide 12 ([2]; AKR1C3 inhibition): > 66 fold |
| 40 ± 1.3 | 0.3 ± 0.01 | > 100 | – | – | Cc1ccc(CNC(=O)c2cc(Br)cc(/C=C/C(=O)O)c2)cc1 [Compound 11, (E)-3-(3-Bromo-5-((4-methylbenzyl)carbamoyl)phenyl)acrylic acid] | Selectivity 1C2:1C3 ([2]; Table 2): >333 |
| – | – | 156 ± 71 | 0.88 | 177 | Cc1ccc(CNC(=O)c2cc(/C=C/C(=O)O)cc(CC(C)c3ccccc3)c2)cc1 (stereo not shown) [Compound A1-x, (E)-3-(3-((4-Methylbenzyl)carbamoyl)-5-(2-phenylpropyl)phenyl)acrylic acid] | – |

Further lines, the compound ahead of its results:

| Structure (SMILES) | IC50 [1] [µM] | IC50 [2, 5] [µM] | IC50 [3, 6] [µM] | IC50 ([2]; read-out: IC50 AKR1C3) [µM] | selectivity over AKR1C2 [2] [fold] | other results |
| --- | --- | --- | --- | --- | --- | --- |
| Cc1ccc(CNC(=O)c2cc(/C=C/C(N)=O)cc(-c3ccc(Oc4ccccc4)cc3)c2)cc1 [Compound 13, (E)-5-(3-Amino-3-oxoprop-1-en-1-yl)-N-(4-methylbenzyl)-4′-phenoxy-[1,1′-biphenyl]-3-carboxamide] | – | – | – | 2.7 | – | – |
| Cc1ccc(CNC(=O)c2cc(/C=C/C(=O)O)cc(-c3ccc(-n4c5ccccc5c5ccccc54)cc3)c2)cc1 [Compound A1-v, (E)-3-(4′-(9H-Carbazol-9-yl)-5-((4-methylbenzyl)carbamoyl)-[1,1′-biphenyl]-3-yl)acrylic acid] | 11 ± 3.1 | 0.14 ± 0.015 | 31 ± 2.8 | – | 221 | IC50 [4]: 36 ± 5.5 µM |
| Cc1ccc(CNC(=O)c2cc(/C=C/C(=O)O)cc(-c3ccc(F)cc3F)c2)cc1 [Compound A1-g, (E)-3-(2′,4′-Difluoro-5-((4-methylbenzyl)carbamoyl)-[1,1′-biphenyl]-3-yl)acrylic acid] | – | – | – | 0.13 | – | – |
| Cc1ccc(CNC(=O)c2cc(/C=C/C(=O)O)cc(-c3ccc(-c4ccccc4)cc3)c2)cc1 [Compound A1-u, (E)-3-(5-((4-Methylbenzyl)carbamoyl)-[1,1′:4′,1″-terphenyl]-3-yl)acrylic acid] | 2.4 ± 0.15 | 0.05 ± 0.004 | 29 ± 4.8 | – | – | Selectivity 1C2:1C3 ([2]; Table 2): 580 |
| CC[C@@H](NC(=O)c1cc(/C=C/C(=O)O)cc(-c2ccc(Oc3ccccc3)cc2)c1)c1ccccc1 [Compound 20b, (R,E)-3-(4′-Phenoxy-5-((1-phenylpropyl)carbamoyl)-[1,1′-biphenyl]-3-yl)acrylic acid] | – | – | – | – | – | IC50 [2, 7]: 0.26 ± 0.0166 µM |
| CC(C)=CCc1cc(/C=C/C#N)cc(C(=O)NCc2ccc(C)cc2)c1 [Compound 16b, (E)-3-(2-Cyanovinyl)-N-(4-methylbenzyl)-5-(3-methylbut-2-en-1-yl)benzamide] | – | – | – | 2.7 | – | IC50 [2, 8]: 2.7 ± 0.37 µM |
| Cc1ccc(CNC(=O)c2cc(/C=C/C(=O)O)cc(-c3ccc(Oc4ccccc4)cc3)c2)cc1 [Compound A1-n, (E)-3-(5-((4-Methylbenzyl)carbamoyl)-4′-phenoxy-[1,1′-biphenyl]-3-yl)acrylic acid] | – | 0.094 ± 0.01 | 4.8 ± 1.2 | – | 51 | – |
| Cc1ccc(CNC(=O)c2cc(/C=C/C(=O)O)cc(-c3ccc(CN4CCOCC4)c(F)c3)c2)cc1 [Compound A1-y, (E)-3-(3′-Fluoro-5-((4-methylbenzyl)carbamoyl)-4′-(morpholinomethyl)-[1,1′-biphenyl]-3-yl)acrylic acid] | – | – | 5.1 ± 0.6 | 0.33 | 16 | – |
| Cc1ccc(CNC(=O)c2cc(C#Cc3ccccc3)cc(/C=C/C(=O)O)c2)cc1 [Compound A1-w, (E)-3-(3-((4-methylbenzyl)carbamoyl)-5-(phenylethynyl)phenyl)acrylic acid] | – | 0.18 ± 0.019 | 11 ± 3.1 | – | 61 | – |
| Cc1ccc(CNC(=O)c2cc(/C=C/C(=O)O)cc(-c3ccc4c(c3)OCCO4)c2)cc1 [Compound A1-s, (E)-3-(3-(2,3-Dihydrobenzo[b][1,4]dioxin-6-yl)-5-((4-methylbenzyl)carbamoyl)phenyl)acrylic acid] | 53 ± 7.1 | 0.11 ± 0.011 | 22 ± 4.5 | – | 200 | IC50 [4]: > 100 µM |
| CC[C@@H](NC(=O)c1cc(/C=C/C(=O)O)cc(-c2ccc(C(C)C)cc2)c1)c1ccccc1 [Compound 20a, (R,E)-3-(4′-Isopropyl-5-((1-phenylpropyl)carbamoyl)-[1,1′-biphenyl]-3-yl)acrylic acid] | – | – | – | – | – | IC50 [2, 7]: 0.12 ± 0.014 µM; Selectivity 1C2:1C3 ([2]; Table 4): 51; IC50 ([3]; Table 4, compounds of formula (A3), read-out: IC50 AKR1C2): 6 ± 1.4 µM |
| Cc1ccc(CNC(=O)c2cc(/C=C/C(=O)O)cc(-c3ccc4nccnc4c3)c2)cc1 [Compound A1-q, (E)-3-(3-((4-Methylbenzyl)carbamoyl)-5-(quinoxalin-6-yl)phenyl)acrylic acid] | 31 ± 2.9 | – | 12.5 ± 2.1 | 0.094 | – | Selectivity 1C2:1C3 ([2]; Table 2): 133; IC50 [4]: 70 ± 48 µM |
| COc1ccc(-c2cc(/C=C/C(=O)O)cc(C(=O)NCc3ccc(C)cc3)c2)cc1 [Compound A1-l, (E)-3-(4′-Methoxy-5-((4-methylbenzyl)carbamoyl)-[1,1′-biphenyl]-3-yl)acrylic acid] | – | 0.17 ± 0.03 | – | – | – | – |
| Cc1ccc(CNC(=O)c2cc(/C=C/C(=O)O)cc(-c3ccc(C(F)(F)F)cc3)c2)cc1 [Compound A1-h, (E)-3-(5-((4-Methylbenzyl)carbamoyl)-4′-(trifluoromethyl)-[1,1′-biphenyl]-3-yl)acrylic acid] | – | 0.2 ± 0.02 | – | – | – | – |
| Cc1ccc(CNC(=O)c2cc(Br)cc(/C=C/C(N)=O)c2)cc1 [Compound 12, (E)-3-(3-Amino-3-oxoprop-1-en-1-yl)-5-bromo-N-(4-methylbenzyl)benzamide] | – | – | – | – | – | IC50 [2, 8]: 28 ± 2.9 µM |
| Cc1ccc(CNC(=O)c2cc(/C=C/C#N)cc(-c3ccc(Oc4ccccc4)cc3)c2)cc1 [Compound 16a, (E)-5-(2-Cyanovinyl)-N-(4-methylbenzyl)-4′-phenoxy-[1,1′-biphenyl]-3-carboxamide] | – | – | – | 1.4 | – | IC50 [2, 8]: 1.4 ± 0.3 µM |
| Cc1ccc(CNC(=O)c2cc(Br)cc(/C=C/C#N)c2)cc1 [Compound 15, (E)-3-Bromo-5-(2-cyanovinyl)-N-(4-methylbenzyl)benzamide] | – | – | – | 0.17 | – | – |
| Cc1ccc(CNC(=O)c2cc(/C=C/C(=O)O)cc(-c3ccc(C#N)cc3)c2)cc1 [Compound A1-m, (E)-3-(4′-Cyano-5-((4-methylbenzyl)carbamoyl)-[1,1′-biphenyl]-3-yl)acrylic acid] | – | 0.17 ± 0.01 | – | – | – | – |
| Cc1ccc(CNC(=O)c2cc(/C=C/C(=O)O)cc(-c3ccc(C(C)C)cc3)c2)cc1 [Compound A1-k, (E)-3-(4′-Isopropyl-5-((4-methylbenzyl)carbamoyl)-[1,1′-biphenyl]-3-yl)acrylic acid] | – | – | – | 0.19 | – | – |
